Format in all cases: cell-based
In test [1] the test system is Streptococcus suis 702. The test is described as follows: Individual tests, microdilution MIC. Conditions: Streptococcus suis; S. suis 702; read-out: MIC values. Here is the method:
(§1) Strains were stored at −80° C. in appropriate media with glycerol, thawed and cultured according to conventional practices.
(§2) The ABs shown in Tables 2 and 3 below, all obtained from Aplha Aesar, were tested. The OAs used are shown in Tables 2 and 3 below, all obtained from Merck. The stock solutions were prepared appropriately and in appropriate way and media for the different strains and could contain 3.5% ethanol to increase solubility.
(§3) The tests were conducted using the microdilution method in a 96-well plate to be microtitered with the medium and culture conditions appropriate for the strains. Bacterial strains (10^5-10^6 CFU/ml) were incubated with the compounds to be tested, while control strains, when necessary, were grown in media containing 3.5% ethanol to exclude an inhibitory effect of any ethanol present in the stock solutions. After incubation, MIC was defined as the lowest concentration resulting in zero absorbance at 630 nm, recorded with Varioskan® LUX Multimode Microplat Reader (Thermo Fisher Scientific). For each test, the percentage of inhibition (%) was calculated with respect to the relative control.
(§4) ABs were tested in the range 64-0.13 ppm, OAs in the range […] and NICs in the range 7.5-0.06 nM.
For orientation: Broth dilution looks for growth in wells or tubes with falling amounts of substance.

In test [2] the test system is Escherichia Coli K88 95. The test is described as follows: Individual tests, microdilution MIC. Conditions: Escherichia coli, COLIK8895; E. coli 95; read-out: MIC values. On the procedure: as §1, §2, §3, §4
Test [3] concerns Streptococcus suis 701. The test is described as follows: Individual tests, microdilution MIC. Conditions: Streptococcus suis; S. suis 701; read-out: MIC values. Here is the method: as §1, §2, §3, §4
Test [4] concerns Escherichia coli K88 97. The test is described as follows: Individual tests, microdilution MIC. Conditions: Escherichia coli, K8897; E. coli 97; read-out: MIC values. Here is the method:
as §1, §2, §3, §4

The test system of test [5] is Streptococcus suis 702. The test is described as follows: Combination test, checkerboard, % inhibition. Conditions: S. suis 702. Here is the method:
as §1, §3
(§5) After phase 1, the strains were tested with associations at sub-effective doses of AB and OA or NIC in a 2×2 checkerboard model. Specifically, two sub-effective doses of AB were associated with two sub-effective doses of OA or NIC (half and one-quarter of MICs) as shown in FIG. 1.
(§6) The % indicate the percentage of inhibition (compounds alone and combinations).
(§7) Tables 4 to 7 show the % of inhibition of the components of the associations alone, at the effective concentrations shown in Tables 2 and 3, and at the sub-effective concentrations (half and one-quarter of MICs), and the % of inhibition of the associations.

In test [6] the test system is Escherichia Coli K88 95. Nature of the test: Combination test, checkerboard, % inhibition. Conditions: E. coli 95. On the procedure: as §1, §3, §5, §6, §7
The test system of test [7] is Streptococcus suis 701. Nature of the test: Combination test, checkerboard, % inhibition. Conditions: S. suis 701. Here is the method:
as §1, §3, §5, §6, §7

Test [8] relates to Escherichia coli K88 97. The test is described as follows: Combination test, checkerboard, % inhibition. Conditions: E. coli 97. On the procedure: as §1, §3, §5, §6, §7

≈ marks a conversion by molar mass, not a printed value.

Broadly, the MIC is the least concentration at which growth counts as inhibited. The % inhibition is the share of the control response that was lost under treatment. As for `Cc1ccc(C(C)C)c(O)c1` [Thymol, 2-isopropyl-5-methylphenol], the MIC in the test with Streptococcus suis 702 [1], in the test on Escherichia Coli K88 95 [2], in the test with Streptococcus suis 701 [3] and with Escherichia coli K88 97 [4] was 1870 µM (≈ 281 µg/mL) in each case. In addition, the “% inhibition” value is on record as 10% in the test with Streptococcus suis 702 [5] (THY 0.47 mM alone); 36% in the test with Streptococcus suis 702 [5] (THY 0.94 mM alone); 7% in the test on Escherichia Coli K88 95 [6] (THY 0.47 mM alone); 18% in the test with Escherichia Coli K88 95 [6] (THY 0.94 mM alone); 0% in the test with Streptococcus suis 701 [7] (THY 0.47 mM alone); 39% with Streptococcus suis 701 [7] (THY 0.94 mM alone). For the same molecule, the “% inhibition” value with Escherichia coli K88 97 [8] (THY 0.47 mM alone) was found to be 8%; with Escherichia coli K88 97 [8] (THY 0.94 mM alone), 12%.

(Values after patent US20250170105A1, “ASSOCIATION WITH ANTIBIOTIC ACTIVITY, PHARMACEUTICAL COMPOSITIONS CONTAINING IT AND THEIR USE IN THE TREATMENT OF INFECTIONS” (VETAGRO INTERNATIONAL S.R.L., priority 2022, published 2025).)
